Assay results reported in patent US12540131B2 (Merck Sharp & Dohme LLC, priority 2019, dated 2026).

Each compound was assayed against GST tagged truncated human mutant G2019S LRRK2 (Homo sapiens (Human), UniProt Q5S007, G2019S) (assay: LRRK2 Km ATP LanthaScreen Assay). Details: G2019S LRRK2, 134 μM ATP (Km ATP), mean values.
Format: biochemical
In short: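 Enzyme (GST-tagged, truncated) was preincubated with compound for 15 min at RT in 50 mM Tris pH 8.5, 10 mM MgCl2, 0.01% Brij-35, 1 mM EGTA, 2 mM DTT and 0.05 mM orthovanadate. Fluorescein-LRRKtide and 134 μM ATP (Km) were then added for 90 min. EDTA and Tb-anti-pERM antibody stopped the reaction; the TR-FRET 520/495 ratio gave 4-parameter IC50s, reported as mean pIC50.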

GST tagged truncated human mutant G2019S LRRK2, sequence (Q5S007 970-2527 G2019S): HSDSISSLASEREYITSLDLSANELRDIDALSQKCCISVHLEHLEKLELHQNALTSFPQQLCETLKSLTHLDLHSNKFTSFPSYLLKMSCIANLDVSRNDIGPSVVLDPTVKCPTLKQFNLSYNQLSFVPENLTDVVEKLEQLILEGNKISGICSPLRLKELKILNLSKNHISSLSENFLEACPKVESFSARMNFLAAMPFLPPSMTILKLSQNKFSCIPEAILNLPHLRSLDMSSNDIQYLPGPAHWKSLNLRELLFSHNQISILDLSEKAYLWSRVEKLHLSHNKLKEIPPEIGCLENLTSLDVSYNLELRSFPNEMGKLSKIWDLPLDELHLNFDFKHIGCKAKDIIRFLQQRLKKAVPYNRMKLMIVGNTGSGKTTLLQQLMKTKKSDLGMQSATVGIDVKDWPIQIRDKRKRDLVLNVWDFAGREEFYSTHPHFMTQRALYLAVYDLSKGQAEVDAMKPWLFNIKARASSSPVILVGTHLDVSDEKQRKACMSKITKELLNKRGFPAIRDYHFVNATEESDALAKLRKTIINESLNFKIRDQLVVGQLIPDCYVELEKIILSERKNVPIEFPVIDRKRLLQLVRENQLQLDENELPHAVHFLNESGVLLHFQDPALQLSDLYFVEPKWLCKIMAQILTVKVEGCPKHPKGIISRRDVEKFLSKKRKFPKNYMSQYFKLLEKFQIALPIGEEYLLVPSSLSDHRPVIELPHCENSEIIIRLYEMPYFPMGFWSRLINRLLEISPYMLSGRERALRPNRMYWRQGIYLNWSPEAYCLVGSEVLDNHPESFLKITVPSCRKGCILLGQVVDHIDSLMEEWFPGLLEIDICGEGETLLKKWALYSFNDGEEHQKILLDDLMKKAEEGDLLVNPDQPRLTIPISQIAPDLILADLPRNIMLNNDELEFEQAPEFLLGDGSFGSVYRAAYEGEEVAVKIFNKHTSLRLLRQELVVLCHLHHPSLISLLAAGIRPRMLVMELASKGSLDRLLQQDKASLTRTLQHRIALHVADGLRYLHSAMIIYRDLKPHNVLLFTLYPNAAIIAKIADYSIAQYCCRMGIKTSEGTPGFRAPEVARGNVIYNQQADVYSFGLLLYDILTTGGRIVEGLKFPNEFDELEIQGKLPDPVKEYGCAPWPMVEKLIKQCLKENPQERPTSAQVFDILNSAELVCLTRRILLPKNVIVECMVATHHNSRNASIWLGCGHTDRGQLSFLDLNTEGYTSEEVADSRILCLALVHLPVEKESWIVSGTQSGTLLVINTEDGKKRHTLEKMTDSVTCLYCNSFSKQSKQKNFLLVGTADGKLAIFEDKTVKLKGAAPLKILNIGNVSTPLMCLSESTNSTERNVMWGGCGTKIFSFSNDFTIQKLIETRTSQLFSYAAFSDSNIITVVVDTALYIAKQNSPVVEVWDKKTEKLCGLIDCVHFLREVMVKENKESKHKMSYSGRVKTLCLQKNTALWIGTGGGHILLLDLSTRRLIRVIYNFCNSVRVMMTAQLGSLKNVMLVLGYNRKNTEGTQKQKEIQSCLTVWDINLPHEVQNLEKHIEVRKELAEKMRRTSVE

SMILES	LRRK2 pIC50
C[C@]1(N2CC[C@@H](c3cc4nc(Nc5cnn(C6CC6)c5Cl)ncc4cc3Cl)[C@H](F)C2)COC[C@H]1O (single isomer, unassigned) [Ex-4.247, (3S,4S)(3S,4S) or (3S,4S)(3R,4R) or (3R,4R)(3S,4S) or (3R,4R)(3R,4R) 4-(4-{6-chloro-2-[(5-chloro-1-cyclopropyl-1H-pyrazol-4-yl)amino]quinazolin-7-yl}-3-fluoropiperidin-1-yl)-4-methyloxolan-3-ol]	>9.20
CO[C@H]1COC[C@H]1N1CC[C@@H](c2cc3nc(Nc4cnn(C5CC5)c4Cl)ncc3cc2C)[C@H](F)C1 (single isomer, unassigned) [Ex-4.248, (3S,4S)(3S,4S) or (3S,4S)(3R,4R) or (3R,4R)(3S,4S) or (3R,4R)(3R,4R)N-(5-chloro-1-cyclopropyl-1H-pyrazol-4-yl)-7-[3-fluoro-1-(4-methoxyoxolan-3-yl)piperidin-4-yl]-6-methylquinazolin-2-amine]	>9.20
C[C@@]1(N2CC[C@@H](c3cc4nc(Nc5cnn(C6CC6)c5Cl)ncc4cc3Cl)[C@H](F)C2)COC[C@@H]1O (single isomer, unassigned) [Ex-4.249, (3S,4S)(3S,4S) or (3S,4S)(3R,4R) or (3R,4R)(3S,4S) or (3R,4R)(3R,4R) 4-(4-{6-chloro-2-[(5-chloro-1-cyclopropyl-1H-pyrazol-4-yl)amino]quinazolin-7-yl}-3-fluoropiperidin-1-yl)-4-methyloxolan-3-ol]	>9.20
CO[C@H]1COC[C@H]1N1CC[C@@H](c2cc3nc(Nc4cnn(C5CC5)c4Cl)ncc3cc2C)[C@H](F)C1 (single isomer, unassigned) [Ex-4.250, (3S,4S)(3S,4S) or (3S,4S)(3R,4R) or (3R,4R)(3S,4S) or (3R,4R)(3R,4R) N-(5-chloro-1-cyclopropyl-1H-pyrazol-4-yl)-7-[3-fluoro-1-(4-methoxyoxolan-3-yl)piperidin-4-yl]-6-methylquinazolin-2-amine]	8.22
Cn1nc(C(F)(F)F)cc1Nc1ncc2cc(Cl)c([C@@H]3CCN([C@]4(C)COC[C@@H]4O)C[C@H]3F)cc2n1 (single isomer, unassigned) [Ex-4.251, (3S,4S)(3S,4S) or (3S,4S)(3R,4R) or (3R,4R)(3S,4S) or (3R,4R)(3R,4R) 4-[4-(6-chloro-2-{[1-methyl-3-(trifluoromethyl)-1H-pyrazol-5-yl]amino}quinazolin-7-yl)-3-fluoropiperidin-1-yl]-4-methyloxolan-3-ol]	9.05
Cn1nc(C(F)(F)F)cc1Nc1ncc2cc(Cl)c([C@@H]3CCN([C@@]4(C)COC[C@H]4O)C[C@H]3F)cc2n1 (single isomer, unassigned) [Ex-4.252, (3S,4S)(3S,4S) or (3S,4S)(3R,4R) or (3R,4R)(3S,4S) or (3R,4R)(3R,4R) 4-[4-(6-chloro-2-{[1-methyl-3-(trifluoromethyl)-1H-pyrazol-5-yl]amino}quinazolin-7-yl)-3-fluoropiperidin-1-yl]-4-methyloxolan-3-ol]	6.61
Cn1ncc(Nc2ncc3cc(Cl)c([C@@H]4CCN([C@@]5(C)COC[C@H]5O)C[C@H]4F)cc3n2)c1C(F)(F)F (single isomer, unassigned) [Ex-4.253, (3S,4S)(3S,4S) or (3S,4S)(3R,4R) or (3R,4R)(3S,4S) or (3R,4R)(3R,4R) 4-[4-(6-chloro-2-{[1-methyl-5-(trifluoromethyl)-1H-pyrazol-4-yl]amino}quinazolin-7-yl)-3-fluoropiperidin-1-yl]-4-methyloxolan-3-ol]	>9.20
Cn1ncc(Nc2ncc3cc(Cl)c([C@@H]4CCN([C@]5(C)COC[C@@H]5O)C[C@H]4F)cc3n2)c1C(F)(F)F (single isomer, unassigned) [Ex-4.254, (3S,4S)(3S,4S) or (3S,4S)(3R,4R) or (3R,4R)(3S,4S) or (3R,4R)(3R,4R) 4-[4-(6-chloro-2-{[1-methyl-5-(trifluoromethyl)-1H-pyrazol-4-yl]amino}quinazolin-7-yl)-3-fluoropiperidin-1-yl]-4-methyloxolan-3-ol]	>9.20
Cc1c(Nc2ncc3cc(Cl)c([C@@H]4CCN([C@@H]5COC[C@@H]5O)C[C@H]4F)cc3n2)cnn1C (single isomer, unassigned) [Ex-4.255, (3S,4S)(3S,4S) or (3S,4S)(3R,4R) or (3R,4R)(3S,4S) or (3R,4R)(3R,4R) 4-(4-(6-chloro-2-((1,5-dimethyl-1H-pyrazol-4-yl)amino)quinazolin-7-yl)-3-fluoropiperidin-1-yl)tetrahydrofuran-3-ol]	>9.20
Cc1c(Nc2ncc3cc(Cl)c([C@@H]4CCN([C@H]5COC[C@H]5O)C[C@H]4F)cc3n2)cnn1C (single isomer, unassigned) [Ex-4.256, (3S,4S)(3S,4S) or (3S,4S)(3R,4R) or (3R,4R)(3S,4S) or (3R,4R)(3R,4R) 4-(4-(6-chloro-2-((1,5-dimethyl-1H-pyrazol-4-yl)amino)quinazolin-7-yl)-3-fluoropiperidin-1-yl)tetrahydrofuran-3-ol]	>9.20
Cc1cc2cnc(Nc3cnn(C)c3C)nc2cc1[C@@H]1CCN([C@@H]2COC[C@@H]2O)C[C@H]1F (single isomer, unassigned) [Ex-4.257, (3S,4S)(3S,4S) or (3S,4S)(3R,4R) or (3R,4R)(3S,4S) or (3R,4R)(3R,4R) 4-(4-(2-((1,5-dimethyl-1H-pyrazol-4-yl)amino)-6-methylquinazolin-7-yl)-3-fluoropiperidin-1-yl)tetrahydrofuran-3-ol]	>9.20
Cc1cc2cnc(Nc3cnn(C)c3C)nc2cc1[C@@H]1CCN([C@H]2COC[C@H]2O)C[C@H]1F (single isomer, unassigned) [Ex-4.258, (3S,4S)(3S,4S) or (3S,4S)(3R,4R) or (3R,4R)(3S,4S) or (3R,4R)(3R,4R) 4-(4-(2-((1,5-dimethyl-1H-pyrazol-4-yl)amino)-6-methylquinazolin-7-yl)-3-fluoropiperidin-1-yl)tetrahydrofuran-3-ol]	7.39
Cc1cc2cnc(Nc3cnn(C)c3Cl)nc2cc1[C@@H]1CCN([C@@H]2COC[C@@H]2O)C[C@H]1F (single isomer, unassigned) [Ex-4.259, (3S,4S)(3S,4S) or (3S,4S)(3R,4R) or (3R,4R)(3S,4S) or (3R,4R)(3R,4R) 4-(4-(2-((5-chloro-1-methyl-1H-pyrazol-4-yl)amino)-6-methylquinazolin-7-yl)-3-fluoropiperidin-1-yl)tetrahydrofuran-3-ol]	>9.20
Cc1cc2cnc(Nc3cnn(C)c3Cl)nc2cc1[C@@H]1CCN([C@H]2COC[C@H]2O)C[C@H]1F (single isomer, unassigned) [Ex-4.260, (3S,4S)(3S,4S) or (3S,4S)(3R,4R) or (3R,4R)(3S,4S) or (3R,4R)(3R,4R) 4-(4-(2-((5-chloro-1-methyl-1H-pyrazol-4-yl)amino)-6-methylquinazolin-7-yl)-3-fluoropiperidin-1-yl)tetrahydrofuran-3-ol]	8.00
CO[C@H]1COC[C@H]1N1CC[C@@H](c2cc3nc(Nc4cnn(C5CC5)c4Cl)ncc3cc2C)[C@H](F)C1 (single isomer, unassigned) [Ex-4.261, (3S,4S)(3S,4S) or (3S,4S)(3R,4R) or (3R,4R)(3S,4S) or (3R,4R)(3R,4R) N-(5-chloro-1-cyclopropyl-1H-pyrazol-4-yl)-7-[3-fluoro-1-(4-methoxyoxolan-3-yl)piperidin-4-yl]-6-methylquinazolin-2-amine]	7.51
COC12CC(n3ncc(Nc4ncc5cc(Cl)c([C@@H]6CCN([C@@H]7COC[C@@H]7O)C[C@H]6F)cc5n4)c3Cl)(C1)C2 (single isomer, unassigned) [Ex-4.262, (3S,4S)(3S,4S) or (3S,4S)(3R,4R) or (3R,4R)(3S,4S) or (3R,4R)(3R,4R) 4-(4-(6-chloro-2-((5-chloro-1-(3-methoxybicyclo[1.1.1]pentan-1-yl)-1H-pyrazol-4-yl)amino)quinazolin-7-yl)-3-fluoropiperidin-1-yl)tetrahydrofuran-3-ol]	9.19
Cc1cc2cnc(Nc3cnn(C4CC4)c3C)nc2cc1[C@@H]1CCN(C2COC2)C[C@H]1F (single isomer, unassigned) [Ex-5.3, (3S,4S) or (3R,4R) N-(1-cyclopropyl-5-methyl-1H-pyrazol-4-yl)-7-[3-fluoro-1-(oxetan-3-yl)piperidin-4-yl]-6-methylquinazolin-2-amine]	8.96
Cc1cc2cnc(Nc3cnn(C4CC4)c3C)nc2cc1[C@H]1CCN(C2COC2)C[C@@H]1F (single isomer, unassigned) [Ex-5.4, (3S,4S) or (3R,4R) N-(1-cyclopropyl-5-methyl-1H-pyrazol-4-yl)-7-[3-fluoro-1-(oxetan-3-yl)piperidin-4-yl]-6-methylquinazolin-2-amine]	8.75
Cc1cc2cnc(Nc3cnn(CC(C)(C)O)c3C)nc2cc1[C@@H]1CCN(C2COC2)C[C@H]1F (single isomer, unassigned) [Ex-5.5, (3S,4S) or (3R,4R) 1-[4-({7-[3-fluoro-1-(oxetan-3-yl)piperidin-4-yl]-6-methylquinazolin-2-yl}amino)-5-methyl-1H-pyrazol-1-yl]-2-methylpropan-2-ol]	8.37
Cc1cc2cnc(Nc3cnn(CC(C)(C)O)c3C)nc2cc1[C@H]1CCN(C2COC2)C[C@@H]1F (single isomer, unassigned) [Ex-5.6, (3S,4S) or (3R,4R) 1-[4-({7-[3-fluoro-1-(oxetan-3-yl)piperidin-4-yl]-6-methylquinazolin-2-yl}amino)-5-methyl-1H-pyrazol-1-yl]-2-methylpropan-2-ol]	8.68
